Assays:
SIVmac251 or SIVmac239 = assay: Tissue cell-associated vRNA/vDNA, colorectal biopsies and LN FNA; assay type: in vivo, rhesus macaques
Procedure: Blood was collected in EDTA tubes and plasma was separated by density gradient centrifugation and used for the determination of plasma VL by SIVgag qRT-PCR at NIRC or at Leidos (Quantitative Molecular Diagnostics Core, AIDS and Cancer Virus Program Frederick National Laboratory). Tissue VL from snap frozen colorectal biopsies and LN FNA were performed at Leidos (A14X004, A14X005 and A14X013) as described in (78) or, for the remaining macaques and from PBMC of all macaques they were performed as described in (77).

Tregs and Tfh cells = assay: Circulating Treg and Tfh frequencies by flow cytometry; assay type: in vivo, rhesus macaques
Procedure: Peripheral blood mononuclear cells (PBMCs) collected from 8 macaques at 7 time points spanning Cycle 1 to Cycle 4 (refer to Table 5) were employed for high-parameter flow cytometry staining. Cells from before and after cycle 1 and at the end of cycle 3 were used for Tfh/Treg assay. In both cases, cell fixation and permeabilization for intracellular staining were carried out using the FoxP3 Staining Buffer set (Thermo Fisher Scientific, Carlsbad, CA). The high-dimensional panel consisted of antibodies outlined in Table 4, catering to requirements for surface and intracellular staining, as well as viability assessment. Each antibody was individually titrated to ensure optimal staining conditions. Data acquisition was performed using the FACSymphony A5.2 Spectral Analyzer. Following data collection, spectral compensation was implemented utilizing FlowJo™ v10.8 Software (BD Life Sciences). 60,000 live singlet lymphocytes from each of samples was downsampled to prevent disproportionate representation by samples with higher cell counts, ensuring balanced subsequent analysis. To mitigate batch effects, we utilized the swiftReg Neighbor-Dependent Cluster Registration (NDCR) method available within the SWIFT package(112). This method effectively addresses batch variations while preserving the inherent biological diversity. […] Furthermore, we implemented the Peak Extraction and Cleaning Oriented Quality Control (PeacoQC) procedure (138) in FlowJo™ v10.8 to eliminate low-quality events arising from potential issues like clogs, speed fluctuations, and slow sample uptake. FlowSOM FlowJo plugin was employed for automated cell population identification, preceded by the utilization of Phenograph to obtain optimal cluster numbers for dimensional reduction, for the merged data of All Time points and BC1 vs AC4 merged data respectively. The Supplementary FIG. 29A heatmap illustrates the median fluorescence intensity (MFI) values for all markers across all clusters. […]

U1 cells = assay: DC-driven HIV reactivation from U1 cells (moDC co-culture); assay type: cell-based; details: moDCs treated with TGF-β1 10 ng/ml for last 2 days, with or without galunisertib; 18 hrs co-culture
Procedure: CD14^+ cells were isolated from PBMC using the Miltenyi CD14^+ beads. Monocyte-derived DCs (moDCs) were obtained from CD14+ cells cultured in GM-CSF and IL-4 as previously described (55). At day 4 of moDCs differentiation, TGF-β1 (10 ng/ml R&D systems) was added to the moDCs to generate the TGF-β-DCs (or both TGF-β1 and galunisertib). At day 6, 2 days after TGF-1 addition, moDCs were phenotyped (in 3 donors; See Table 2 for antibodies list) and co-cultured with eFluor670 (eBioscience)-labelled U1 at 3:1 U1:DC ratio (5 donors). After 18 hrs of co-culture, cells were stained for p24 intracellularly as described above.

[1] = Galunisertib plasma pharmacokinetics by LCMS; assay type: in vivo, rhesus macaques
Procedure: Eight naïve macaques (FIG. 9) were used to collect plasma and PBMC for PK/PD studies. 4 macaques received galunisertib (2.5 mg/kg, n=2 or 5 mg/kg, n=2) once and blood was collected at 1 hr, 3 hr and 6 hrs, 24 hrs and 48 hrs. 4 macaques received galunisertib (2.5 mg/kg, n=2 or 5 mg/kg, n=2) twice daily for 9 days and samples were collected 1 hr, 3 hr and 8 hrs after administration on day 1 and on day 9 right before and 1 hr and 3 and 6 hrs after the last administration. Plasma concentrations of galunisertib were measured by IMSERC (Integrated Molecular Structure Education and Research Center) utilizing liquid chromatography mass spectrometry (Shimadzu Kyoto, Japan ultra-high performance liquid chromatography—UHPLC—system and SCIEX Framingham, MA Qtrap 6500+ triple quadrupole mass spectrometer). All standard, quality controls (QC) and experimental samples were prepared and ran in duplicate using 20 μL of plasma (spiked with galunisertib if a standard or QC) adding 15 μL of 8% phosphoric acid solution, 200 μL of acetonitrile (to crash plasma proteins) spiked with tramadol as an internal standard. The standard curve was prepared as a 10-point curve from 1.0 to 1,000 ng/ml with three QCs. […] All samples and standards were processed in duplicate with the average area under the curve (AUC) being used for quantitation reporting. […] The resulting limit of quantitation (LOQ) was 1.0 ng/ml.

HIV-Bal = assay: In vitro HIV-1 replication in SupT1 cells and PHA-PBMC (p24 ELISA); assay type: cell-based; details: SupT1 cells and PBMC from healthy donors, different concentrations of galunisertib
Procedure: For control experiments of the impact of galunisertib on HIV infection of SupT1 cells and PBMC, SupT1 cells and PHA-activated PBMC were cultured respectively at 1 and 2 millions/ml in R10 (in presence of 20 U/ml of IL-2 for the PBMC) and infected with 50 TCID50/10^6 cells of HIV-Bal (0.01 MOI). HIV replication was monitored by p24 ELISA.

ACH-2 cells = assay: PMA-induced HIV reactivation in ACH-2 cells, intracellular p24 staining; assay type: cell-based
Procedure: ACH2 cells and U1 cells were obtained through the NIH HIV Reagent Program, Division of AIDS, NIAID, NIH (contributed by Dr. Thomas Folks). […] In the HIV latency reactivation conditions, PMA (Phorbol 12-myristate 13-acetate, SigmaAldrich) was added at 100 ng/ml together with galunisertib or TGF-β1. After 18 hrs, cells were stained intracellularly for p24 using the KC57 antibody (NIH HIV Reagent Program) as previously described (74).

Cc1cccc(-c2nn3c(c2-c2ccnc4ccc(C(N)=O)cc24)CCC3)n1 [galunisertib, Galunisertib]
ratio CA-RNA/DNA (SIVmac251 or SIVmac239; at least 2 macaques (A14X027 and A14X064)): increased substantially
increase in cell associated vRNA (CA-RNA) (SIVmac251 or SIVmac239; colorectal biopsies and LN FNA, before vs after treatment): 1 to 3 log
circulating Tfh (CXCR5+PD1+) within total and central memory CD4+ T cells (Tregs and Tfh cells; end of treatment): lower
frequency of CD4+ Tregs (CD25high FoxP3+) and CD8+ Tregs (Tregs and Tfh cells; remained higher until end of 3rd cycle): increased after the first cycle
expression of CD39 on total and central memory CD4+ T cells (Tregs and Tfh cells; rhesus monkey, in vivo): lower
frequency of p24-gag+ U1 cells in cocultures with TGF-β1-treated DCs versus untreated DCs (U1 cells): blocked
concentration in blood of macaques lower than average concentration in human plasma after similar dosing ([1]; macaque vs human plasma): at least 10 fold
PK in rhesus macaques compared with humans ([1]; naïve animals, oral 2.5 or 5 mg/kg): substantially lower than in humans
HIV-1 growth curves (HIV-Bal): no impact
frequency of p24-gag+ cells in TGF-β1-treated cultures (ACH-2 cells; ACH-2 cells, TGF-β1 + galunisertib 1 μM): restore frequency of p24-gag+ cells
frequency of p24-gag+ cells versus PMA-stimulated cultures (ACH-2 cells; ACH-2 cells, galunisertib in absence of exogenous TGF-β1, medium with FBS): increase it above PMA-stimulated cultures
effect on p24+ cells in X-Vivo 15 medium without FBS (ACH-2 cells; control experiments, U1 and ACH-2, no FBS): absent
